Measured values reported in US5589461A, “Active substance for inhibiting the proliferation rate of hepatocytes” (priority 1994, dated 1996).
Several values for one entry are separate records, joined by “and”; a condition that tells them apart may be missing. Equal values may be shown once. Where a SMILES comes first, the peptide text is derived from it.

How the values were obtained:
[1] = tested on: human T-cells; settings: cited from earlier work
[2] = tested on: hepatitis B viruses; experiment: synthesis of hepatitis B viruses in transfected Hep G2 cells (HBSAG/HBEAG radioimmunoassay); format: cell-based; settings: for Ratio of mean values in cpm before/after treatment, HBEAG / Ratio of mean values in cpm before/after treatment, HBSAG: six days
From the text: Hepatitis B viruses can be cultivated in Hep G2 cells. For this purpose, a recombining plasmide containing the complete virus DNA is channelled into the cells. Starting from this, the synthesizing mechanism of the cells transfected in this way will produce hepatitis B viruses (cf. Chungming Chang et al., EMBO J. 6, p. 675-680, 1987) The virus synthesis manifests itself by secreting large quantities of two surface antigens of that virus (HBSAG and HBEAG). The antigens can be detected by means of a radioimmunoassay (RIA). In this determination, an unknown quantity of antigen (HBSAG and HBEAG) competes with a known quantity of radioactively marked antigen for a limited number of antibody binding positions in a predetermined quantity of the antiserum. In the state of equilibrium, the surplus antigen exists in both the bound and the free dissolved conditions. Now, if the quantity of radioactively marked antigen is constant in a series of reactions, the proportion bound to the antibody will decrease in accordance with an increasing quantity of unmarked antigen added to the individual samples.
For practical execution of this process, a calibration curve is established first, using known quantities of marked and unmarked antigen, which will then permit determination of the unknown quantity of antigen. After incubation, the free antigen is separated from the bound antigen, and the two fractions are measured separately.
A Hep-G2 cell culture was steadily transfected with hepatitis B viruses as described by SELLS et al., Proc. Natl. Acad. Sci. USA 1987, 84, p. 1005-1009. The transfected cells were sowed in ten 4.5 cm dishes at a density of 8×10^5 cells, and in four 9 cm dishes at a density of 1.6×10^6 cells respectively. After 24 hours, fresh medium was added, containing the tripeptide SDK at concencentrations of 0.5 ng/ml, 1.0 ng/ml, 3.0 ng/ml and 5 ng/ml for each two 4.9 cm dishes, or 1.0 ng/ml for each two 9 cm dishes respectively. The tripeptide had been prediluted in completed DMEM ([…]) and sterilized by filtration. The remaining dishes served as a control, receiving the pure medium. The old medium was conserved in the supernatant for measurement of antigens, in order to exclude artifacts due to possible heterogeneities of cell density. The samples of medium for measurement of antigens were taken after six days. Measurement was effected using a standard RIA kit (HBSAG Ansria II/125, type 7802, and HBEAG Abbott Hbe (rDNA), type 1237/24, both from Abbott, Wiesbaden), according to instructions for use. The experiments were conducted with twin samples (two dishes each), since the cells from one dish were not enough.

[3] = tested on: IgM secreting B-lymphocytes; settings: mice; cited from earlier work
[4] = tested on: YOSHIDA liver tumor cell ascites AH 130; experiment: development of the YOSHIDA ascites AH 130 in rat; format: in vivo
Procedure: Two groups, each comprising five female Wistar rats weighing approx. 100 grams, were inoculated with the YOSHIDA liver tumor cell ascites AH 130 of a rat having been infected 8 days ago. 0.5 ml of ascites fluid were injected intraperitoneally (i.p.) to each animal. Starting on the seventh day after ascites inoculation, 1 μg of SDK (dissolved in 1 ml of 0.9% NaCl solution) was injected i.p. to each animal of one group (five rats) during four days. Then the animals of both groups were killed. The following parameters were determined:
(a) Weight or respectively volume of ascites fluid. The killed rats were weighed, the ascites was sucked off as completely as possible, and the animals were weighed again. The difference resulting from these two ponderations corresponded to the ascites volume (1 g ≈1 ml).
(b) Number of tumor cells in the ascites 2 ml of the sucked-off ascites for each animal were placed into an EDTA tube, to prevent cells from agglomerating. With an aliquot thereof, the number of tumor cells was measured in a Coulter counter and extrapolated for the total volume.
The third and fourth columns give the respective results of twin measurements.

[5] = tested on: hepatocytes; experiment: proliferation rate of hepatocytes in rats after 66% partial hepatectomy (3H-thymidine, specific radioactivity of DNA); format: in vivo, rat
From the text: To carry out these experiments, young female Wistar rats weighing 100 g were used, which had been provided from the SPF animal house department of the Max-Planck-Instut fur Biochemie in D-82152 Martinstied.
Seven groups of rats were subjected to 66% partial hepatectomy. In each experimental group 4 animals were used. In a slight modification of the Higgins and Anderson method (Higgins, G. M., Anderson, R. M., Archives of Pathology 12 (1931), p. 186-202), the rats were submitted to partial hepatectomy between 13.00 h and 13.30 h. The tetrapeptide SDKP synthesized in the conventional way and dissolved in 1 ml of 0.9% NaCl was injected intraperitoneally (i.p.) to three groups immediately after operation and to three other groups 10 hrs after the operation, each three with different quantities (500 μg, 1 μg). The seventh group served as a control group, receiving the solvent only. […] The livers were conserved at -20° C. up to the time of determining the specific radioactivity of the DNA in the hepatocyte nuclei.
This specific radioactivity was used as a marker for the proliferation behaviour of the hepatocytes: Thymidine is incorporated only in DNA (not e.g. in RNA), and significant DNA synthesis is effected only during cell proliferation. The specific radioactivity of the DNA (in dpm/μg DNA) is the quotient of the result of radioactivity measurement of a sample (in dpm, i.e. disintegrations per minute) by the DNA content of that sample (in μg). The proliferation promoting or proliferation inhibiting character of the peptide (depending on the administered dose and the time of administration after partial hepatectomy) was determined by establishing the percentage of the specific radioactivity of the DNA in the hepatocyte nuclei of the experimental group as compared with the specific radioactivity of the control group associated with each experiment.
For determination of the specific radioactivity, the DNA was first extracted from the liver. […]
For measurement of the radioactivity, scintillation counting liquid was added to 1 ml of the extract, and ^3 H measurement was effected. […]

[6] = tested on: Hep G2 cells; experiment: human tumor cells in tissue culture (cell growth, 3H-thymidine incorporation); format: cell-based
Procedure: The effect of the tripeptide on human tumor cells was tested in an in-vitro model. For this purpose, Hep G2 cells were used. This cell line is a human hepatom from the tumor cell bank of "Deutsches Krebsforschungszentrum Heidelberg ", which is cultivated as a monolayer in 90% DMEM (Dulbecco's modified Eagle's medium)/10% FKS (fetal calf serum) in a subculture interval of three to five days. Sixty dishes of each of the experimental and control cultures were used. A solution of 20 mg of SDK in 0.2 ml of 0.9% NaCl served as a stock solution which was diluted with a physiological sodium chloride solution as required for each case.
One day after transferring the cells, 0.2 ml of tripeptide SDK dissolved in 0.9% NaCl (concentration: 1 μg/ml) were added to each 10 ml of culture medium. The control dishes received 0.2 ml of solvent.
This test was repeated, this time adding 0.5 ng, 1.0 ng, 2.0 ng and 4.0 ng of SDK in 0.9% NaCl per 1 ml of culture medium. The control dishes again received the corresponding quantity of solvent. Moreover, 0.05 mCi 6-^3 H-thymidine were added to the cultures […] prior to expiration of the observation period, followed by incubation for 1 hour. The DNA of the cells was isolated as described under item (1.), and the radioactivity was measured- The results are listed in the following chart.

[7] = 0.5 ng of SDK per ml of medium, 4.5 cm dishes
[8] = 1.0 ng of SDK per ml of medium, 4.5 cm dishes
[9] = 1.0 ng of SDK per ml of medium, 9.0 cm dishes
[10] = 3.0 ng of SDK per ml of medium, 4.5 cm dishes
[11] = 5.0 ng of SDK per ml of medium, 4.5 cm dishes

**Q.** Which results are given for NCCCC[C@H](NC(=O)[C@H](CC(=O)O)NC(=O)[C@@H](N)CO)C(=O)O [SDK, Ser-Asp-Lys] (H-Ser-Asp-Lys-OH)?
**A.** rosette formation due to interaction of human T-cells and sheep erythrocytes [1]: inhibits rosette formation; Ratio of mean values in cpm before/after treatment, HBEAG [2, 7]: 6.10; Ratio of mean values in cpm before/after treatment, HBSAG [2, 7]: 4.47; Ratio of mean values in cpm before/after treatment, HBEAG [2, 8]: 6.22; Ratio of mean values in cpm before/after treatment, HBSAG [2, 8]: 4.18; Ratio of mean values in cpm before/after treatment, HBEAG [2, 9]: 6.59; Ratio of mean values in cpm before/after treatment, HBSAG [2, 9]: 3.89; Ratio of mean values in cpm before/after treatment, HBEAG [2, 10]: 7.31; Ratio of mean values in cpm before/after treatment, HBSAG [2, 10]: 4.57; Ratio of mean values in cpm before/after treatment, HBEAG [2, 11]: 8.00; Ratio of mean values in cpm before/after treatment, HBSAG [2, 11]: 4.18; concentration of antigens, and hence the virus synthesis ([2]; transfected Hep G2 cells, SDK vs untreated): significantly reduced; immunomodulating effect: humoral response (generation of IgM secreting B-lymphocytes) to red blood cells of sheep [3]: stimulation of the humoral response; average number of tumor cells as % of the number found in control animals ([4]; 1 μg SDK/animal i.p. during four days): 19.1%; Ascites ([4]; 1 μg SDK/animal i.p. during four days from seventh day after ascites inoculation): 5.1 mL and 5.2 mL and 4.3 mL and 5.7 mL; quantity of ascites ([4]; 1 μg SDK/animal vs control): drastic decrease; total number of tumor cells ([4]; 1 μg SDK/animal vs control): drastic decrease; Cell number total, mean value + standard deviation ([4]; 1 μg SDK/animal, five rats): 147.7 ± 70.1 × 10^6; effect on hepatocyte proliferation ([5]; 1 μg injected after a certain time interval (1 h, 3, 6, 10 hrs after operation)): inhibiting effect; effect on hepatocyte proliferation ([5]; 1 μg injected immediately after operation): slightly proliferation promoting effect; decrease in proliferation ([5]; 1 μg injected ten hours after operation): about fifty; Inhibition of proliferation in % ([6]; 0.5 ng of SDK per ml of medium): 19.3%; Inhibition of proliferation in % ([6]; 1.0 ng of SDK per ml of medium): 44.9%; Inhibition of proliferation in % ([6]; 2.0 ng of SDK per ml of medium): 34.0%; Inhibition of proliferation in % ([6]; 4.0 ng of SDK per ml of medium): 12.4%; concentration of maximum proliferation inhibiting effect ([6]; Hep G2, per ml of culture medium): 1 ng/mL
